This passage reports EC50 and Emax results from EP4813984A1 (Jiangsu Hengrui Pharmaceuticals Co., Ltd., priority 2023, dated 2025).

The term EC50 denotes the concentration needed to bring the measured effect to its halfway point.

Structures are written as SMILES.

T1 sequence (P43220 24-463): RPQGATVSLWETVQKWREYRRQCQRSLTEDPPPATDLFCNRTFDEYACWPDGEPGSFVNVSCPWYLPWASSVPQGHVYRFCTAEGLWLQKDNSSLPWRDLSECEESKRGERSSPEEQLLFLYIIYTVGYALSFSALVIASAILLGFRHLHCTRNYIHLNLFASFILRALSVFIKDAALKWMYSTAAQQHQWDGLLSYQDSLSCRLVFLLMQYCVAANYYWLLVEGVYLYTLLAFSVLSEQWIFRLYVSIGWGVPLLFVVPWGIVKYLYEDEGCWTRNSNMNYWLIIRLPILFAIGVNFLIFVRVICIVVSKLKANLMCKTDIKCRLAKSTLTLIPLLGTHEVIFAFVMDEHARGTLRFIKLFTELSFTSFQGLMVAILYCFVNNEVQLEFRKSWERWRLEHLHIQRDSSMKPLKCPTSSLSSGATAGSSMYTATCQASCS

This test addresses T1, hGLP-1 receptor (Homo sapiens, UniProt P43220).
T1 construct: expressed in transfected cells; host or cells: CHO-K1 (stably transfected with hGLP-1 receptor plasmid and CRE-luc plasmid)
Put plainly: Agonist activity against GLP-1 receptor (CRE-luciferase reporter, ONE-Glo Luciferase Assay System). It is filed as cell-based. Conditions: CHO-K1/CRE-luc/hGLP-1 receptor cells; 5 h incubation with compound; chemiluminescence readout. From the text: This experiment was intended to test the agonist activity of compound molecules against hGLP-1 receptor and evaluate the in vitro activity of the molecules according to EC50. In this experiment, ONE-Glo™ Luciferase Assay System (ONE-Glo™ Luciferase Assay System, Promega, E6110) was used. Under the action of the compound molecules, GLP-1R downstream signaling pathways were activated to cause elevated cAMP level. The binding of cAMP to CRE could initiate the transcriptional expression of a CRE downstream luciferase gene. The luciferase could emit fluorescence when reacting with a substrate thereof. The fluorescence signal, which reflected the activity of the compound for agonizing GLP-1 receptor, was measured by means ONE-Glo™ reagent.
A stably transfected CHO-K1/CRE-luc/hGLP-1 receptor cell strain (hGLP-1 receptor plasmid constructed in-house and CRE-luc plasmid Promega E8471) was constructed. CHO-K1/CRE-luc/hGLP-1 receptor cells were digested, centrifuged, and then resuspended. The single cell suspension was uniformly mixed and adjusted to a viable cell density of 2.78 × 10^5 cells/ml with a cell culture medium (DME/F-12 + 10% FBS). The resulting solution was added to a 96-well cell culture plate at 90 µL/well (Corning, #3903). The culture plate was incubated in an incubator for 16 h (37°C, 5% CO2).
The compound was dissolved in DMSO to prepare a stock solution with an initial concentration of 20 mM. The starting concentration of the small molecule compound was 0.02 mM. The compound was subjected to 3-fold dilution for 10 points, wherein the 11th point was DMSO. Another 96-well plate was taken, to which was added 95 µL/well of a cell culture medium (DME/F-12 + 10% FBS), followed by 5 µL/well of test samples with different concentrations. The mixtures were uniformly mixed. Next, 10 µL/well of test samples with different concentrations were added to the cell culture plate, with two duplicate wells for each sample. The culture plate was incubated in an incubator for 5 h (37°C, 5% CO2). The 96-well cell culture plate was taken out. 100 µL/well of ONE-Glo™ reagent was added, followed by incubation at room temperature for 10 minutes. Chemiluminescence was measured in and by a microplate reader (PHERAstar FS, BMG labtech).
Data were processed and analyzed using Microsoft Excel and Graphpad Prism 10. EC50 values of the compounds were obtained. Table 1. Agonist activity of the compounds of the present invention against hGLP-1 receptor
A general note: Reporter assays use an easily measured gene product as a stand-in for the process of interest.
In the case of `Cc1cc(-n2nc3c(c2N2C[C@@H]4COc5cc6c(cnn6C(F)F)c(F)c5N4C2=O)[C@H](C)N(C(=O)c2cc4cc([C@H]5CCOC(C)(C)C5)ccc4n2[C@@]2(c4noc(=O)[nH]4)C[C@@H]2C)CC3)cc(C)c1F` [Compound 25, (R)-7-(difluoromethyl)-2-((S)-5-(5-((S)-2,2-dimethyltetrahydro-2H-pyran-4-yl)-1-((1S,2S)-2-methyl-1-(5-oxo-4,5-dihydro-1,2,4-oxadiazol-3-yl)cyclopropyl)-1H-indole-2-carbonyl)-2-(4-fluoro-3,5-dimethylphenyl)-4-methyl-4,5,6,7-tetrahydro-2H-pyrazolo[4,3-c]pyridin-3-yl)-10-fluoro-2,3,3a,4-tetrahydro-1H,7H-imidazo[1',5':4,5][1,4]oxazino[3,2-f]indazol-1-one], the EC50 was 0.02 nM and the Emax stood at 18.46 fold.

Consider `Cc1cc(-n2nc3c(c2N2C[C@@H]4COc5cc6c(cnn6CC(F)(F)F)c(F)c5N4C2=O)[C@H](C)N(C(=O)c2cc4cc([C@H]5CCOC(C)(C)C5)ccc4n2[C@@]2(c4noc(=O)[nH]4)C[C@@H]2C)CC3)cc(C)c1F` [Compound 29, (R)-2-((S)-5-(5-((S)-2,2-dimethyltetrahydro-2H-pyran-4-yl)-1-((1S,2S)-2-methyl-1-(5-oxo-4,5-dihydro-1,2,4-oxadiazol-3-yl)cyclopropyl)-1H-indole-2-carbonyl)-2-(4-fluoro-3,5-dimethylphenyl)-4-methyl-4,5,6,7-tetrahydro-2H-pyrazolo[4,3-c]pyridin-3-yl)-10-fluoro-7-(2,2,2-trifluoroethyl)-2,3,3a,4-tetrahydro-1H,7H-imidazo[1',5':4,5][1,4]oxazino[3,2-f]indazol-1-one], for which the half-maximal effective concentration (EC50) amounted to 0.02 nM and the Emax is listed as 19.58 fold.

Regarding `C[C@H]1c2c(nn(-c3ccc(F)c(C4CC4)c3)c2N2C[C@@H]3COc4cc5c(cnn5C5CC5)c(F)c4N3C2=O)CCN1C(=O)c1cc2cc([C@H]3CCOC(C)(C)C3)ccc2n1[C@@]1(c2noc(=O)[nH]2)C[C@@H]1C` [Compound 46, (R)-7-cyclopropyl-2-((S)-2-(3-cyclopropyl-4-fluorophenyl)-5-(5-((S)-2,2-dimethyltetrahydro-2H-pyran-4-yl)-1-((1S,2S)-2-methyl-1-(5-oxo-4,5-dihydro-1,2,4-oxadiazol-3-yl)cyclopropyl)-1H-indole-2-carbonyl)-4-methyl-4,5,6,7-tetrahydro-2H-pyrazolo[4,3-c]pyridin-3-yl)-10-fluoro-2,3,3a,4-tetrahydro-1H,7H-imidazo[1',5':4,5][1,4]oxazino[3,2-f]indazol-1-one], the concentration giving a half-maximal response (EC50) worked out at 0.05 nM and the Emax came to 16.76 fold.

Take `Cc1cc(-n2nc3c(c2-c2cncn(-c4ccc5c(cnn5C5CC5)c4)c2=O)[C@H](C)N(C(=O)c2cc4cc([C@H]5CCOC(C)(C)C5)ccc4n2[C@@]2(c4noc(=O)[nH]4)C[C@@H]2C)CC3)cc(C)c1F` [Compound 41, 3-((1S,2S)-1-(2-((S)-3-(1-(1-cyclopropyl-1H-indazol-5-yl)-6-oxo-1,6-dihydropyrimidin-5-yl)-2-(4-fluoro-3,5-dimethylphenyl)-4-methyl-4,5,6,7-tetrahydro-2H-pyrazolo[4,3-c]pyridine-5-carbonyl)-5-((S)-2,2-dimethyltetrahydro-2H-pyran-4-yl)-1H-indol-1-yl)-2-methylcyclopropyl)-1,2,4-oxadiazol-5(4H)-one]: the half-maximal effective concentration (EC50) was 0.05 nM and the Emax came out at 18.56 fold.

In the case of `COCCn1ncc2c(F)c3c(cc21)OC[C@H]1CN(c2c4c(nn2-c2cc(C)c(F)c(C)c2)CCN(C(=O)c2cc5cc([C@H]6CCOC(C)(C)C6)ccc5n2[C@@]2(c5noc(=O)[nH]5)C[C@@H]2C)[C@H]4C)C(=O)N31` [Compound 30, (R)-2-((S)-5-(5-((S)-2,2-dimethyltetrahydro-2H-pyran-4-yl)-1-((1S,2S)-2-methyl-1-(5-oxo-4,5-dihydro-1,2,4-oxadiazol-3-yl)cyclopropyl)-1H-indole-2-carbonyl)-2-(4-fluoro-3,5-dimethylphenyl)-4-methyl-4,5,6,7-tetrahydro-2H-pyrazolo[4,3-c]pyridin-3-yl)-10-fluoro-7-(2-methoxyethyl)-2,3,3a,4-tetrahydro-1H,7H-imidazo[1',5':4,5][1,4]oxazino[3,2-f]indazol-1-one], the EC50 was found to be 0.02 nM and the Emax is reported as 20.59 fold.

In the case of `Cc1cc(-n2nc3c(c2N2C[C@@H]4COc5c(c(F)cc6c5cnn6C5CC5)N4C2=O)[C@H](C)N(C(=O)c2cc4cc([C@H]5CCOC(C)(C)C5)ccc4n2[C@@]2(c4noc(=O)[nH]4)C[C@@H]2C)CC3)cc(C)c1F` [Compound 37, (R)-1-cyclopropyl-7-((S)-5-(5-((S)-2,2-dimethyltetrahydro-2H-pyran-4-yl)-1-((1S,2S)-2-methyl-1-(5-oxo-4,5-dihydro-1,2,4-oxadiazol-3-yl)cyclopropyl)-1H-indole-2-carbonyl)-2-(4-fluoro-3,5-dimethylphenyl)-4-methyl-4,5,6,7-tetrahydro-2H-pyrazolo[4,3-c]pyridin-3-yl)-10-fluoro-5,5a,6,7-tetrahydro-1H,8H-imidazo[1',5':4,5][1,4]oxazino[2,3-e]indazol-8-one], the concentration giving a half-maximal response (EC50) is 0.03 nM and the Emax was found to be 18.06 fold.

`Cc1cc(-n2nc3c(c2N2C[C@@H]4COc5cc6c(cnn6C(C)C)c(F)c5N4C2=O)[C@H](C)N(C(=O)c2cc4cc([C@H]5CCOC(C)(C)C5)ccc4n2[C@@]2(c4noc(=O)[nH]4)C[C@@H]2C)CC3)cc(C)c1F` [Compound 40, (R)-2-((S)-5-(5-((S)-2,2-dimethyltetrahydro-2H-pyran-4-yl)-1-((1S,2S)-2-methyl-1-(5-oxo-4,5-dihydro-1,2,4-oxadiazol-3-yl)cyclopropyl)-1H-indole-2-carbonyl)-2-(4-fluoro-3,5-dimethylphenyl)-4-methyl-4,5,6,7-tetrahydro-2H-pyrazolo[4,3-c]pyridin-3-yl)-10-fluoro-7-isopropyl-2,3,3a,4-tetrahydro-1H,7H-imidazo[1',5':4,5][1,4]oxazino[3,2-f]indazol-1-one]: the 50% effective concentration (EC50) came to 0.03 nM and the Emax is listed as 19.36 fold.

With `Cc1cc(-n2nc3c(c2N2C[C@@H]4COc5cc6c(cnn6C6CC6)c(F)c5N4C2=O)[C@H](C)N(C(=O)c2cc4cc([C@H]5CCOC(C)(C)C5)ccc4n2[C@@]2(c4noc(=O)[nH]4)C[C@@H]2C)CC3)cc(C)c1F` [Compound 13, (R)-7-cyclopropyl-2-((S)-5-(5-((S)-2,2-dimethyltetrahydro-2H-pyran-4-yl)-1-((1S,2S)-2-methyl-1-(5-oxo-4,5-dihydro-1,2,4-oxadiazol-3-yl)cyclopropyl)-1H-indole-2-carbonyl)-2-(4-fluoro-3,5-dimethylphenyl)-4-methyl-4,5,6,7-tetrahydro-2H-pyrazolo[4,3-c]pyridin-3-yl)-10-fluoro-2,3,3a,4-tetrahydro-1H,7H-imidazo[1',5':4,5][1,4]oxazino[3,2-f]indazol-1-one], the EC50 was determined as 0.01 nM and the Emax is reported as 21.50 fold.

Turning to `Cc1cc(-n2nc3c(c2N2C[C@@H]4COc5c(ccc6c5cnn6C)N4C2=O)[C@H](C)N(C(=O)c2cc4cc([C@H]5CCOC(C)(C)C5)ccc4n2[C@@]2(c4noc(=O)[nH]4)C[C@@H]2C)CC3)cc(C)c1F` [Compound 23, (R)-7-((S)-5-(5-((S)-2,2-dimethyltetrahydro-2H-pyran-4-yl)-1-((1S,2S)-2-methyl-1-(5-oxo-4,5-dihydro-1,2,4-oxadiazol-3-yl)cyclopropyl)-1H-indole-2-carbonyl)-2-(4-fluoro-3,5-dimethylphenyl)-4-methyl-4,5,6,7-tetrahydro-2H-pyrazolo[4,3-c]pyridin-3-yl)-1-methyl-5,5a,6,7-tetrahydro-1H,8H-imidazo[1',5':4,5][1,4]oxazino[2,3-e]indazol-8-one], the EC50 worked out at 0.02 nM and the Emax came to 22.76 fold.

On to `Cc1cc(-n2nc3c(c2-c2cccn(-c4ccc5c(cnn5C)c4)c2=O)[C@H](C)N(C(=O)c2cc4cc([C@H]5CCOC(C)(C)C5)ccc4n2[C@@]2(c4noc(=O)[nH]4)C[C@@H]2C)CC3)cc(C)c1F` [Compound 3, 3-((1S,2S)-1-(5-((S)-2,2-dimethyltetrahydro-2H-pyran-4-yl)-2-((S)-2-(4-fluoro-3,5-dimethylphenyl)-4-methyl-3-(1-(1-methyl-1H-indazol-5-yl)-2-oxo-1,2-dihydropyridin-3-yl)-4,5,6,7-tetrahydro-2H-pyrazolo[4,3-c]pyridine-5-carbonyl)-1H-indol-1-yl)-2-methylcyclopropyl)-1,2,4-oxadiazol-5(4H)-one], for which the EC50 worked out at 0.09 nM and the Emax is listed as 19.88 fold.
